This note sets out measurements from ChEMBL document CHEMBL5614413, “Design, synthesis and biological evaluation of amphiphilic benzopyran derivatives as potent antibacterial agents against multidrug-resistant bacteria” (Eur J Med Chem, 2024).

This test deals with Staphylococcus aureus. The test can be described thus: Antibacterial activity against methicillin-resistant Staphylococcus aureus ATCC 43300 infected in sepsis mouse model assessed as reduction in pathological damages in spleen at 5 to 10 mg/kg pre-infected with bacteria for 1 hrs followed by continuous compound administration at 12 hrs intervals for 2 days by H and E staining based analysis. The format is functional, organism-based. To be noted: dose 5-10 mg/kg, time 2.0 day.

Calls of active or inactive are those of the source. The rule behind the calls is not given here.

For the molecule `CCCCN(CCCC)CCCNCCCOc1c(C(C)=O)ccc2c1C=CC(C)(CCC=C(C)C)O2` (stereo unspecified), the outcome was Active.
